In patent US7531533B2, “6-Membered heterocyclic compound and use thereof” (Asahi Kasei Pharma Corporation, priority 2005, dated 2009):

Assays:
human EP2 receptor = target: T1, human EP2 receptor (Homo sapiens, UniProt P43116); experiment: [3H]PGE2 receptor binding test, human EP2 receptor expressing HEK293 membrane fraction; settings: [3H]PGE2 1 nM
T1 construct: expressed in transfected cells
Description: (§1) Receptor Binding Test by Using Human EP Receptor Expressing Cells
(§2) In order to evaluate the selectivity for each EP receptor subtype, which is considered to greatly influence on the side reaction of drugs, [^3H]PGE2 binding inhibitory activities of test compounds were measured in HEK293 in which human EP1, human EP2, human EP3, or human EP4 receptor was stably expressed.
(§3) As a result of searching for prostaglandin E receptors using Refseq Database, the gene information of human EP1 (NM_000955), human EP2 (NM_000956), human EP3 (NM_198719), and human EP4 (NM_000958) was obtained. […] After the reaction, the reaction mixture was subjected to suction filtration under reduced pressure so that [^3H]PGE2 binding to the membrane fraction was trapped on Unifilter Plate GF/C (produced by Packard), and binding radioactivity was measured by using a liquid scintillator.
(§4) The Kd value was obtained by Scatchard plot. […] The [^3H]PGE2 binding inhibitory activity of a test compound was measured by adding [^3H]PGE2 (1 nM) and a test compound at various concentrations. […]
(§5) Further, HEK293 in which each of human EP1, human EP2, and human EP3 receptors was stably expressed was established, and a membrane fraction was prepared. […] The ratios of Ki value for human EP4 to Ki values for human EP1, human EP2, and human EP3 were calculated. […]

human EP1 receptor = target: T2, human EP1 receptor (Homo sapiens, UniProt P34995); experiment: [3H]PGE2 receptor binding test, human EP1 receptor expressing HEK293 membrane fraction; settings: [3H]PGE2 1 nM
T2 construct: expressed in transfected cells
T2 sequence (P34995 1-402): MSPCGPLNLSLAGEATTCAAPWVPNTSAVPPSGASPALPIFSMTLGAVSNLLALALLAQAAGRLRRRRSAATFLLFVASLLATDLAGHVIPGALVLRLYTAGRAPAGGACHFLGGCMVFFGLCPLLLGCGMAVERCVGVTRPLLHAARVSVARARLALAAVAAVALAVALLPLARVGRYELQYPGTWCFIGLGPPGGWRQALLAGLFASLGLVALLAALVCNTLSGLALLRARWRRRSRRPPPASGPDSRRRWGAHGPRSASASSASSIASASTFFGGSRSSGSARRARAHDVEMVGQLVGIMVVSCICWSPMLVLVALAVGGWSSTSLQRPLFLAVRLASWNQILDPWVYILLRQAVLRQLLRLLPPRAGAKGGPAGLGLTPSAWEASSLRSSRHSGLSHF
Description: as §1, §2, §3, §4, §5

human EP3 receptor = target: T3, human EP3 receptor (Homo sapiens, UniProt P43115); experiment: [3H]PGE2 receptor binding test, human EP3 receptor expressing HEK293 membrane fraction; settings: [3H]PGE2 1 nM
T3 construct: expressed in transfected cells
T3 sequence (P43115 1-390): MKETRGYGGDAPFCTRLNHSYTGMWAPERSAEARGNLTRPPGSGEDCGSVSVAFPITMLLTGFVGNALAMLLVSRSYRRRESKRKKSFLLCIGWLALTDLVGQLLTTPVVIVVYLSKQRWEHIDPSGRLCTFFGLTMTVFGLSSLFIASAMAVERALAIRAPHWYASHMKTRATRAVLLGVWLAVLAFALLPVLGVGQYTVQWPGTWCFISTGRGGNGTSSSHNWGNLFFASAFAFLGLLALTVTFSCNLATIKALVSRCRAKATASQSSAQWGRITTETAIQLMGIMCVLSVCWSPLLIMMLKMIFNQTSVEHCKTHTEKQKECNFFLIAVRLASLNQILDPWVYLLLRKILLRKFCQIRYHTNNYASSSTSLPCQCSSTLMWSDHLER
Description: as §1, §2, §3, §4, §5

crab-eating monkeys = experiment: Intraocular pressure lowering action in crab-eating monkeys; assay type: in vivo, crab-eating monkey; settings: 50 μl instilled, measured over 6 hours, 3 monkeys
Description: Intraocular Pressure Lowering Action
Male crab-eating monkeys with a body weight of 5 to 7.5 kg (5- to 10-year old) were used for the experiment. Example Compound Nos. IAH-H001a, IAH-H010, and IAH-H057 were each dissolved at various concentrations in water or physiological saline containing sodium hydroxide in an amount of the same equivalence as each compound. The intraocular pressure was measured immediately before a treatment with a test compound, then 50 μl of a solution containing each test compound was instilled, and the intraocular pressure was measured over time for 6 hours after the instillation. The intraocular pressure was measured under ketamine (5 to 10 mg/kg, intramuscular injection) anesthetization by using a pneumatic applanation tonometer. Each test compound was used in 3 monkeys, and the intraocular pressures before and after the instillation were compared.

[1] = tested on: dextran sulfate-induced inflammatory intestinal disease model mice; experiment: Action in dextran sulfate-induced inflammatory intestinal disease model mice; assay type: in vivo, mouse; settings: 7% DSS drinking water 10 days; 0.1-100 mg/kg every day for 10 days
From the text: Action in Dextran Sulfate-Induced Inflammatory Intestinal Disease Model Mice
8-Week old female C57BL/6J mice were allowed to take 7% dextran sulfate (henceforth abbreviated as “DSS”) solution as drinking water ad libitum for 10 days to prepare inflammatory intestinal disease model. From the start of DSS intake, Example Compound Nos. IAH-H001a, IAH-H010 and IAH-H057 each dissolved in a suitable solvent (20 to 50% PEG 400 or 15% cyclodextrin) in the same manner as in Formulation Example 1 were given at appropriate doses (0.1 mg/kg, 1 mg/kg, 10 mg/kg, or 100 mg/kg) every day for 10 days (henceforth referred to as “medicament-treated groups”). Further, the solvent used for dissolving the compounds of the present invention was solely given to the mice made to take DSS (henceforth referred to as “solvent group”), and the solvent used for dissolving the compounds of the present invention was solely given every day to the mice allowed to take distilled water not containing DSS as drinking water ad libitum (henceforth referred to as “normal group”). The number of mice in each group was 10. After the start of intake of drinking water, body weight and clinical score were measured every other day. […] The mice were sacrificed 10 days after the start of intake of DSS containing water, and weights of the intestinal tracts of the large intestines were measured.

T1 sequence (P43116 whole entry): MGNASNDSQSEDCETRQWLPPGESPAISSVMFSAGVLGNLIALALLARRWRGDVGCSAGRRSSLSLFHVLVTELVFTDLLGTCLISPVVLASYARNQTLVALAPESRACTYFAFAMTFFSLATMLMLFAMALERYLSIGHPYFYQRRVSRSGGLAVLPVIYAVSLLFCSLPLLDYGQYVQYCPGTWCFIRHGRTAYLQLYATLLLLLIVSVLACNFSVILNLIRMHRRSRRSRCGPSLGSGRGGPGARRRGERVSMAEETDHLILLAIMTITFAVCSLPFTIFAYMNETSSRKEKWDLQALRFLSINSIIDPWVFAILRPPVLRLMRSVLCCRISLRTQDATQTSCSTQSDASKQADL

- ratio of Ki values human EP2/human EP4 (human EP2 receptor): 15000
- ratio of Ki values human EP1/human EP4 (human EP1 receptor): ≥ 80000
- ratio of Ki values human EP3/human EP4 (human EP3 receptor): ≥ 45000
SMILES: O=C(O)c1ccc(CCN2C(=O)CCCN2CCC(O)Cc2cccc(C(F)(F)F)c2)cc1 (stereo not drawn) [IAH-H001a, 4-[2-(2-{3-hydroxy-4-[3-(trifluoromethyl)-phenyl]butyl}-6-oxotetrahydropyridazin-1-yl)ethyl]benzoic acid]
- intraocular pressure after instillation compared with before instillation (crab-eating monkeys): significant intraocular pressure lowering action
- diarrhea score and bloody stool score compared with the solvent group [1]: significantly improved and suppressed
- reduction of the large intestine weight compared with the solvent group [1]: significantly suppressed
